The text below walks through data of EP0497988A1, “ANTIVIRAL AGENT” (DAINIPPON INK AND CHEMICALS, INC., priority 1990, dated 1992).

The subject of data set [1] is HTLV-IIIB. Kind of data set: Anti-HIV activity by MTT (tetrazolium) method in MT-4 cells. As to conditions: for EC₅₀: MT-4 cells infected with HTLV-IIIB, MOI 0.01, 5 days, MTT. It is filed as cell-based. The protocol: (§1) Test Method: MMT (the tetrazolium assay) method Cell: MT-4 Cell Virus: HTLV-IIIB (Infection : 3 x 10⁵ plaque forming units (PFU)/ml) MT-4 cells were suspended in a culture medium at 2 x 10⁵ cells/ml and infected with HIV-IIIB at a multiplicity of infection of 0.01. Immediately after infection, 100µl of cell suspension was placed into microtiter tray wells containing various concentrations of the test samples. At the same time, the mock-infected cells were also cultured together with the samples in order to assess the cell toxicity of the test samples to the MT-4 cell. They were cultured in a CO₂-gas incubator at 37°C for 5 days, and the number of viable cells were determined by the MTT method. Antiviral activity is expressed by EC₅₀ (50% effective concentration), the concentration at which the agent protects 50% of the cells from injury by HIV infection, and cell toxicity by CC₅₀ (50% cell toxicity concentration), the concentration at which 50% of the cells are injured by the agent. Selectivity is measured by a selectivity index (S.I), which is expressed by CC₅₀/EC₅₀ (R. Pauwels, et al., J. of […], vol. 20, 1988, pp. 309-321).

The nature of data set [2]: Cell toxicity to mock-infected MT-4 cells by MTT method. It is filed as cell-based. As to conditions: human, 5 days, read-out: CC₅₀. The protocol: as §1
In general terms: Tetrazolium assays rely on reduction of a dye to a coloured formazan, in cell work by metabolically active cells.

Data set [3] has as its system MT-4 Cell. The data set is described as above. To be noted: 5 days. It is filed as cell-based. The method, then:
as §1

Data set [4] concerns MT-4 Cell. The experiment in a line: Viable count of mock-infected MT-4 cells cultured with sample (trypan blue exclusion). It is filed as cell-based. The method, then: Samples: MPS-1, MPS-2, MPS-3 and LPS-1 Cell and Virus: MT-4 Cell, MOLT-4 Cell HTLV as one HIV strain was prepared from the supernatant of the HIV-infected cells. The titer for the virus preparation (6 x 10⁵ plaque formation units/ml) was measured by the plaque assay method using MT-4 cells.
The MT-4 cells were mixed with HIV at 0.002MOI (multiplicity of infection), to be cultured at 37°C for 60 min. The virus-absorbing cells were washed and adjusted at 3 x 10⁵ cells/ml (the culture medium was RPMI1640 which supplemented with 10% heat-inactivated fetal calf serum and antibiotic). The suspension of the infected cells was cultured in the presence of the sample, and then cultured in a CO₂-containing atmosphere for 3 days. Then, the medium was replaced with the one containing the same quantity of the sample. Percentages of the viable cells and virus antigen positive cells were counted by the trypan blue exclusion method and indirect fluorescent antibody (IF) methods, respectively.
The test results are given in Tables 1 through 8, where the units for concentration, mock-infected cell count, infected cell count, percentage of HIV-antigen positive cell are µg/ml, x 10⁴cells/ml, and x 10⁴cells/ml, %, respectively.

The subject of data set [5] is HIV. Kind of data set: HIV-induced cytopathic effect: viable count of HIV-infected MT-4 cells (trypan blue exclusion). (Damage to the host cells serves as the signal in cytopathic effect assays.)
Procedure: (§2) The anti-HIV activity of each sample was evaluated by the HIV-induced cytopathic effect (CPE) and the expression of the virus-specific antigen.
The test system of data set [6] is HIV. The experiment in a line: Expression of virus-specific antigen in HIV-infected MT-4 cells (indirect fluorescent antibody method).
Procedure: as §2
[7] abbreviates: 3rd day, concentration 25 µg/ml.
Where [8] appears, read: 3rd day, concentration 50 µg/ml.
Where [9] appears, read: 3rd day, concentration 100 µg/ml.
[10] abbreviates: 3rd day, concentration 200 µg/ml.
The mark [11] stands for this setting: 3rd day, concentration 500 µg/ml.
Where [12] appears, read: 6th day, concentration 25 µg/ml.
[13] abbreviates: 6th day, concentration 50 µg/ml.
[14] abbreviates: 6th day, concentration 100 µg/ml.
Where [15] appears, read: 6th day, concentration 200 µg/ml.

≈ marks a conversion by molar mass, not a printed value.

On to `Cc1cn([C@H]2C[C@H](N=[N+]=[N-])[C@@H](CO)O2)c(=O)[nH]c1=O` [AZT, 3'-azide-3'-deoxythymidine, reference compound], for which, in data set [1] (Human immunodeficiency virus 1, IIIB, MT4, 120 h, read-out: EC₅₀), the EC50 came to 0.0019 µg/mL (≈ 0.00711 µM). Moreover, the CC50 at 120 h in data set [2] is 3.06 µg/mL (≈ 11.5 µM).

As to “sodium salt of octadecyl maltoheptaoside sulfate [MHS-1]”, in data set [1], the EC₅₀ was 2) > 40 µg/ml. Also, in data set [3], the CC₅₀ is 355 µg/mL.

For “sodium salt of sulfated dodecyl β-D-laminarpentaoside [LPS-1]”, the Mock-infected cell count came to 151 x 10⁴cells/ml in data set [4] (setting [7]); 149 x 10⁴cells/ml in data set [4] (setting [8]); 136 x 10⁴cells/ml in data set [4] (setting [9]); 120 x 10⁴cells/ml in data set [4] (setting [10]); 79 x 10⁴cells/ml in data set [4] (setting [11]); 145 x 10⁴cells/ml in data set [4] (setting [12]). The Mock-infected cell count in data set [4] (setting [13]) was 149 x 10⁴cells/ml; in data set [4] (setting [14]), 140 x 10⁴cells/ml; in data set [4] (setting [15]) it was 124 x 10⁴cells/ml. The HIV-infected cell count in data set [5] (setting [7]) was found to be 133 x 10⁴cells/ml; in data set [5] (setting [8]), 128 x 10⁴cells/ml; in data set [5] (setting [9]), 130 x 10⁴cells/ml; in data set [5] (setting [12]) it was 88 x 10⁴cells/ml; in data set [5] (setting [13]), 150 x 10⁴cells/ml; in data set [5] (setting [14]), 107 x 10⁴cells/ml. Further, the “Percentage of HIV-antigen positive cell” value in data set [6] (setting [7]) is recorded as 3%; in data set [6] (setting [8]) it was < 1%; in data set [6] (setting [9]), < 1%; in data set [6] (setting [10]), < 1%; in data set [6] (setting [11]), < 1%; in data set [6] (setting [12]) it was 20%. Moreover, the “Percentage of HIV-antigen positive cell” value is listed as < 1% in data set [6] (setting [13]), 0% in data set [6] (setting [14]) and 0% in data set [6] (setting [15]).

As for “sodium salt of n-decyl β-laminaripentaoside sulfate [LPS-3]”, the EC₅₀ result in data set [1] was “= 67 µg/ml”.

Turning to “sodium salt of octadecyl maltotrioside sulfate [MTS-1]”, the EC₅₀ in data set [1] is 1) > 40 µg/ml. This compound also yielded a CC₅₀ in data set [3] of 329 µg/mL.

For the compound “sodium salt of dodecyl β-D-laminaripentaoside sulfate [LPS-1-1]”, the EC₅₀ in data set [1] amounted to 0.68 µg/mL. Also, the CC₅₀ in data set [3] was > 1000 µg/mL.

Turning to “sodium salt of octadecyl maltohexaoside sulfate [MHS-3]”, the EC₅₀ in data set [1] was determined as 10.36 µg/mL. This compound also returned a CC₅₀ in data set [3] of 580 µg/mL.

For the compound “sodium salt of dodecyl 4-galactosyl β-D-lactoside sulfate [GTS-1]”, the EC₅₀ in data set [1] is 9.8 µg/mL.

In turn, “sodium salt of dodecyl maltohexaoside sulfate [MHS-2]” gave an EC₅₀ in data set [1] of 3.91 µg/mL. Further, in data set [3], the CC₅₀ was > 1000 µg/mL.

Turning to “sodium salt of dodecyl 4-galactosyl-β-D-lactoside sulfate [GTS-2]”, the EC₅₀ in data set [1] amounted to 8.6 µg/mL. In data set [3], the CC₅₀ came to 858 µg/mL.

Consider “sodium salt of n-hexadecyl β-laminaripentaoside sulfate [LPS-2]”, for which the EC₅₀ result in data set [1] is on record as “= 17 µg/ml”.
